Converted amounts (≈) assume the structure as drawn. “And” between values parts separate entries of the source, which are not always exact repeats. Equal values may be shown once.
Tests used:
CMV = CMV yield reduction in MRC5 cell monolayer cultures (plaque assay); assay type: cell-based, human CMV; settings: for CMV Yield PFU/mL: virus controls 1.1 x 10^5; for CMV Yield log10 PFU/mL: virus controls 5.1
Description: (§1) The D- and L-enantiomers of 2'-CdG were prepared from racemic C-2,6-DAPR by an enzymatic method as described above Secrist et al. (J. Med. Chem. 30:746, 1987). The effectiveness of racemic-2'-CdG and of D-2'-CdG in reducing CMV yields in MRC5 cell monolayer cultures was determined by a plaque assay with the results set forth in tables 6 and 7.

human CMV [1] = assay: In vitro activity against human CMV in human foreskin fibroblast cells; assay type: cell-based
Description: The in vitro activity of D-2'-CdG was also compared with the current investigational drug of choice for human CMV, DHPG. These experiments were carried out in human foreskin fibroblast cells.

[2] = system: MRC5 cell monolayer cultures; assay: Drug cytotoxicity (gross morphology) in MRC5 cell monolayer cultures; assay type: cell-based
human CMV [3] = assay: Intravitreal human CMV infection in rabbits; assay type: in vivo, New Zealand white rabbits; settings: intravitreal injection, 100 µg in 100 µl, 48-hour intervals beginning at day 4
Source text: The symptoms included vitritis, iritis, retinal pathology (micro hemorrhages and focal necrosis of the retinal surface), corneal stromal haze and neovascularization, and corneal endothelial pigmented precipitates. […] The intravitreal route offers some significant advantages for intraocular infections including: 1) delivery of maximal concentrations of drug to the desired site of action; 2) increased potential for sustained release (i.e., longer half-life, T1/2) of the drug; and 3) reduced potential for systemic toxicity.

[4] = system: MRC5 cell monolayer cultures; assay: Drug cytotoxicity (gross morphology) in MRC5 cell monolayer cultures; assay type: cell-based; remark: listed apart in the source
Description: as §1

HBV = HBV DNA production and replication in 2.2.15 cell cultures; assay type: cell-based, Hepatitis B virus (HBV); settings: for anti-HBV activity (in words): 50 ng/ml to 5 ug/ml, 2.2.15 cells; for INTRACELLULAR HBV DNA INTEG. / INTRACELLULAR HBV DNA MONO. / INTRACELLULAR HBV DNA RI: 24 hours following 10th day of treatment; for HBV DNA IN CULTURE MEDIUM DAY 0: day 0 of treatment
Description: 2'-CdG was tested at three concentrations (50 ng/ml, 500 ng/ml, and 5 ug/ml) against the HBV-producing, human liver cell line, 2.2.15 (Sells et al., J. Virol. 62:2836, 1989). A racemic (D,L) preparation, as well as the purified D and L isomers were tested. For these analyses compounds were tested in duplicate at all concentrations. Ara-AMP and ddG (2'3'-dideoxyguanosine) were used as HBV inhibitory control compounds. […] The nucleoside analog, ddG was used as an additional control compound since ddG has activity against duck hepatitis B virus in chronically infected Peking ducks (Lee et al., Antimicrob. Agents Chemother. 33:336, 1989) and 2'-CdG is also a deoxyguanosine analog.
2.2.15 cells were seeded in 6 well culture plates and grown to confluence over a 10 day period in medium with 5% FBS. Test compounds were then added daily for a continuous 10 day period in medium with 1% dialyzed FBS. […] Compounds were tested, in duplicate cultures, at 3 concentrations covering a 100-fold range. Culture medium (changed daily during the treatment period) was collected and stored for analysis of extracellular (virion) HBV DNA from days 0, 3, 6, and 10 of the treatment period. This allowed for an analysis of the level of HBV virion production during discrete 24 hour intervals and reduced the potential for the buildup of toxic metabolites derived from the test compounds. Treated cells were lysed following the 10th day of treatment for the analysis of intracellular HBV genomic forms. HBV DNA was analyzed in a quantitative manner for (i) overall levels (both extracellular and intracellular DNA) and (ii) the relative rate of HBV replication (intracellular DNA only).
HBV DNA levels were measured by comparison to known amounts of HBV DNA standards applied to every nitrocellulose filter (gel or slot blot) using an AMBIS Beta Scanner. Standard curves, generated by multiple analyses, were used to correlate CPM measurements with relative levels of target HBV DNA. The levels of HBV DNA in each of three classes of intracellular viral genomic forms were individually quantitated: integrated HBV DNA, episomal monomeric genomes and HBV DNA replication intermediates (RI). Integrated HBV DNA was used to normalize the relative amounts of DNA in each lane because the levels of this class of HBV DNA would be expected to remain constant on a per cell basis. The levels of the monomeric HBV genomes and RI were used as an indicator of the relative level of HBV replication.

## Nc1nc2c(ncn2[C@@H]2C[C@H](CO)[C@@H](O)C2)c(=O)[nH]1 [D-2'-CdG, [1R,3S,4R-(1α,3β,4α)]-D-2-Amino-1,9-dihydro-9-[3-hydroxy-4-(hydroxymethyl)cyclopentyl]-6H-purin-6-one]
CMV; 0.1 µM
  CMV Yield PFU/mL: 3.8 x 10^4 PFU/mL
  CMV Yield log10 PFU/mL: 4.6 log10 PFU/mL
CMV; 0.32 µM
  CMV Yield PFU/mL: 1.4 x 10^4 PFU/mL
  CMV Yield log10 PFU/mL: 4.1 log10 PFU/mL
CMV; 1.0 µM
  CMV Yield PFU/mL: 5.4 x 10^3 PFU/mL
  CMV Yield log10 PFU/mL: 3.7 log10 PFU/mL
CMV; 3.2 µM
  CMV Yield PFU/mL: 8.4 x 10^2 PFU/mL
  CMV Yield log10 PFU/mL: 2.9 log10 PFU/mL
CMV; 10 µM
  CMV Yield PFU/mL: 2 x 10^1 PFU/mL
  CMV Yield log10 PFU/mL: 1.3 log10 PFU/mL
CMV; 32 µM
  CMV Yield PFU/mL: 0 PFU/mL
CMV; 100 µM
  CMV Yield PFU/mL: 0 PFU/mL
CMV; Human betaherpesvirus 5, MRC5, 0.1 µM, read-out: Reduction (%) of CPE by D-2'CdG at Time of Virus Harvest
  inhibition at 0.1 µM: 0%
CMV; Human betaherpesvirus 5, MRC5, 0.32 µM, read-out: Reduction (%) of CPE by D-2'CdG at Time of Virus Harvest
  inhibition at 0.32 µM: 0%
CMV; Human betaherpesvirus 5, MRC5, 1.0 µM, read-out: Reduction (%) of CPE by D-2'CdG at Time of Virus Harvest
  inhibition at 1 µM: 10%
CMV; Human betaherpesvirus 5, MRC5, 3.2 µM, read-out: Reduction (%) of CPE by D-2'CdG at Time of Virus Harvest
  inhibition at 3.2 µM: 10%
CMV; Human betaherpesvirus 5, MRC5, 10 µM, read-out: Reduction (%) of CPE by D-2'CdG at Time of Virus Harvest
  inhibition at 10 µM: 25%
CMV; Human betaherpesvirus 5, MRC5, 32 µM, read-out: Reduction (%) of CPE by D-2'CdG at Time of Virus Harvest
  inhibition at 32 µM: 50%
CMV; Human betaherpesvirus 5, MRC5, 100 µM, read-out: Reduction (%) of CPE by D-2'CdG at Time of Virus Harvest
  inhibition at 100 µM: 50%
Human CMV [1]
  antiviral potency relative to DHPG: more than 3 times
Human CMV [1]; Human betaherpesvirus 5, read-out: ED50 value (median dose at which 50% antiviral efficacy is observed)
  EC50: 0.06 µg/mL (≈ 0.226 µM)
[2]; 0.1 µM
  Drug Cytotoxicity (Gross Morphology): 0
[2]; 1.0 µM
  Drug Cytotoxicity (Gross Morphology): 0
[2]; 10 µM
  Drug Cytotoxicity (Gross Morphology): 0
[2]; 100 µM
  Drug Cytotoxicity (Gross Morphology): slight toxicity
Human CMV [3]
  clinical effect compared to placebo: effective in reducing the development of retinal pathology and in reducing the severity of the vitritis and iritis
  clinical outcome compared to ganciclovir (DHPG) under the same conditions: clinically better than treatment with ganciclovir
[4]; 0.32 µM
  Drug Cytotoxicity (Gross Morphology): 0
[4]; 3.2 µM
  Drug Cytotoxicity (Gross Morphology): 0
[4]; 32 µM
  Drug Cytotoxicity (Gross Morphology): v. sl. toxicity
[4]; 320 µM
  Drug Cytotoxicity (Gross Morphology): toxic
HBV
  anti-HBV activity (in words): as active an inhibitor of HBV replication as the racemic mixture
HBV; 50ng/ml, listed as D, 2CdG
  INTRACELLULAR HBV DNA INTEG.: 1.6 PG/UG CELL DNA and 1.3 PG/UG CELL DNA
  INTRACELLULAR HBV DNA MONO.: 1.3 PG/UG CELL DNA and 2.1 PG/UG CELL DNA
  INTRACELLULAR HBV DNA RI: 16 PG/UG CELL DNA and 20 PG/UG CELL DNA
  HBV DNA IN CULTURE MEDIUM DAY 0: 100 pg/mL and 77 pg/mL
  HBV DNA IN CULTURE MEDIUM DAY 3: 110 pg/mL and 70 pg/mL
  HBV DNA IN CULTURE MEDIUM DAY 6: 38 pg/mL and 40 pg/mL
HBV; 500ng/ml
  INTRACELLULAR HBV DNA RI: 1 PG/UG CELL DNA
HBV; 500ng/ml, listed as D, 2-CdG
  INTRACELLULAR HBV DNA INTEG.: 1.0 PG/UG CELL DNA and 1.6 PG/UG CELL DNA
  INTRACELLULAR HBV DNA MONO.: 1.9 PG/UG CELL DNA and 1.8 PG/UG CELL DNA
  HBV DNA IN CULTURE MEDIUM DAY 0: 80 pg/mL and 90 pg/mL
  HBV DNA IN CULTURE MEDIUM DAY 3: 36 pg/mL and 43 pg/mL
  HBV DNA IN CULTURE MEDIUM DAY 6: 15 pg/mL and 14 pg/mL
HBV; 5 ug/ml
  INTRACELLULAR HBV DNA MONO.: 2.0 PG/UG CELL DNA
  HBV DNA IN CULTURE MEDIUM DAY 10: 0 pg/mL
HBV; 5 ug/ml, listed as D, 2-CdG
  HBV DNA IN CULTURE MEDIUM DAY 0: 100 pg/mL and 120 pg/mL
  HBV DNA IN CULTURE MEDIUM DAY 3: 18 pg/mL and 21 pg/mL
  HBV DNA IN CULTURE MEDIUM DAY 6: 3 pg/mL and 6 pg/mL

## Nc1nc2c(ncn2[C@H]2C[C@@H](CO)[C@H](O)C2)c(=O)[nH]1 [L-2'-CdG, [1S,3R,4S-(1α,3β,4α)]-L-2-Amino-1,9-dihydro-9-[3-hydroxy-4-(hydroxymethyl)cyclopentyl]-6H-purin-6-one]
HBV
  anti-HBV activity (in words): did not exhibit any significant anti-HBV activity
HBV; 50ng/ml, listed as L, 2-CdG
  INTRACELLULAR HBV DNA INTEG.: 1.3 PG/UG CELL DNA and 0.8 PG/UG CELL DNA
  INTRACELLULAR HBV DNA MONO.: 1.4 PG/UG CELL DNA and 1.1 PG/UG CELL DNA
  INTRACELLULAR HBV DNA RI: 90 PG/UG CELL DNA and 76 PG/UG CELL DNA
  HBV DNA IN CULTURE MEDIUM DAY 0: 48 pg/mL and 67 pg/mL
  HBV DNA IN CULTURE MEDIUM DAY 3: 47 pg/mL and 83 pg/mL
  HBV DNA IN CULTURE MEDIUM DAY 6: 90 pg/mL and 63 pg/mL
  HBV DNA IN CULTURE MEDIUM DAY 10: 90 pg/mL and 61 pg/mL
HBV; 500ng/ml
  INTRACELLULAR HBV DNA MONO.: 1.9 PG/UG CELL DNA
HBV; 500ng/ml, listed as L, 2-CdG
  INTRACELLULAR HBV DNA INTEG.: 1.4 PG/UG CELL DNA and 1.5 PG/UG CELL DNA
  INTRACELLULAR HBV DNA RI: 82 PG/UG CELL DNA and 99 PG/UG CELL DNA
  HBV DNA IN CULTURE MEDIUM DAY 0: 90 pg/mL and 110 pg/mL
  HBV DNA IN CULTURE MEDIUM DAY 3: 63 pg/mL and 83 pg/mL
  HBV DNA IN CULTURE MEDIUM DAY 6: 78 pg/mL and 56 pg/mL
  HBV DNA IN CULTURE MEDIUM DAY 10: 97 pg/mL and 91 pg/mL
HBV; 5 ug/ml, listed as L, 2-CdG
  INTRACELLULAR HBV DNA INTEG.: 1.5 PG/UG CELL DNA and 0.9 PG/UG CELL DNA
  INTRACELLULAR HBV DNA MONO.: 2.0 PG/UG CELL DNA and 1.1 PG/UG CELL DNA
  INTRACELLULAR HBV DNA RI: 97 PG/UG CELL DNA and 86 PG/UG CELL DNA
  HBV DNA IN CULTURE MEDIUM DAY 0: 50 pg/mL and 88 pg/mL
  HBV DNA IN CULTURE MEDIUM DAY 3: 67 pg/mL and 110 pg/mL
  HBV DNA IN CULTURE MEDIUM DAY 6: 77 pg/mL and 120 pg/mL
  HBV DNA IN CULTURE MEDIUM DAY 10: 90 pg/mL and 120 pg/mL

Source: patent publication EP0684822B1, “CARBOCYCLIC DEOXYGUANOSINE ANALOGS FOR THE TREATMENT OF VIRAL INFECTIONS” (SOUTHERN RESEARCH INSTITUTE, priority 1993, dated 1994)
